From paper PMC3994528, “GE23077 binds to the RNA polymerase ‘i’ and ‘i+1’ sites and prevents the binding of initiating nucleotides” (eLife, 2014)
Values after ≈ are worked out from the molar mass of the structure shown.

Experiments:
[1] = target: T1, Staphylococcus aureus RNAP (Staphylococcus aureus, UniProt P47768+Q2G0N5); experiment: biochemical
T1 construct: made in house

[2] = system: Human RNAP I / II / III; experiment: Radiochemical assay with human RNAP I/II/III (HeLa nuclear extract); format: biochemical
Method: Radiochemical assays with human RNAP I/II/III were performed essentially as in [Sawadogo and Roeder (1985)]. Reaction mixtures contained (20 µl): 0–100 µM GE, 8 U HeLaScribe Nuclear Extract (Promega, Madison, WI), 1 µg human placental DNA (Sigma–Aldrich), 400 μM ATP, 400 μM [α^32P]UTP (0.11 Bq/fmol), 400 μM CTP, 400 μM GTP, 50 mM Tris–HCl, pH 8.0, 7 mM HEPES-NaOH, 70 mM (NH4)2SO4, 50 mM KCl, 12 mM MgCl2, 5 mM DTT, 0.1 mM EDTA, 0.08 mM phenylmethylsulfonyl fluoride, and 16% glycerol. Reaction components other than DNA and NTPs were pre-incubated 10 min at 30°C, DNA was added and reaction mixtures were incubated 15 min at 30°C, NTPs were added and reaction mixtures were incubated 60 min at 30°C. Reaction mixtures were spotted on DE81 filter discs (Whatman, Kent, UK; pre-wetted with water) and incubated 1 min at room temperature. Filters were washed with 3 × 3 ml Na2HPO4, 2 × 3 ml water, and 3 ml ethanol, using a filter manifold (Hoefer, Holliston, MA). Filters were placed in scintillation vials containing 10 ml Scintiverse BD Cocktail (Thermo Fisher, Waltham, MA), and radioactivity was quantified by scintillation counting (LS6500; Beckman–Coulter, Brea, CA).
Half-maximal inhibitory concentrations (IC50s) were calculated by non-linear regression in SigmaPlot (SPSS, Chicago, IL).

[3] = target: Escherichia coli RNAP (Escherichia coli, UniProt P0A8T7+P0A8V2); experiment: biochemical; format: biochemical; conditions: wild-type E. coli RNAP
[4] = system: Streptococcus pyogenes ATCC 12344; experiment: Antibacterial activity, MIC by broth microdilution; format: cell-based; conditions: ATCC12344
Excerpt: (§1) Minimum inhibitory concentrations (MICs) were quantified using broth microdilution assays ([Clinical and Laboratory Standards Institute, 2009]), using a starting cell density of 3 × 10^4 cfu/ml, LB broth ([Sambrook and Russell, 2001]), and an air atmosphere for E. coli D21f2tolC (tolC:Tn10 rfa lac28 proA23 trp30 his51 rpsL173 ampC tsx81; strain with cell-envelope defects resulting in increased susceptibility to hydrophobic agents, including GE; Fralick and Burns-Keliher, 1994; unpublished data), and using a starting cell density of 3 × 10^4 cfu/ml, Bacto Todd Hewitt broth (TH broth; BD Biosciences, San Jose, CA), and a 7% CO2/6% O2/4% H2/83% N2 atmosphere for S. pyogenes and M. catarrhalis.

[5] = system: Moraxella catarrhalis ATCC 25238; experiment: Antibacterial activity, MIC by broth microdilution; format: cell-based; conditions: ATCC25238
Excerpt: as §1

[6] = system: Escherichia coli D21f2tolC; experiment: Antibacterial activity, MIC by broth microdilution; format: cell-based; conditions: starting cell density 3 × 10^4 cfu/ml
Excerpt: as §1

[7] = target: [Asp565]β-RNAP (Escherichia coli, UniProt P0A8T7+P0A8V2, E565D); experiment: Fluorescence-detected RNAP-Rif interaction assay, GE-resistant RNAP; format: binding
Method: (§2) RNAP-Rif interaction assays were performed as in [Feklistov et al. (2008)]. The assays monitored the quenching of the fluorescence emission of fluorescein incorporated into RNAP holoenzyme at σ^70 residue 517 (serving as a fluorescence-resonance-energy-transfer donor) by the naphthyl moiety of Rif (serving as a fluorescence-resonance-energy-transfer acceptor; [Knight et al., 2005]; [Feklistov et al., 2008]). Fluorescence measurements were performed using a QuantaMaster QM1 spectrofluorometer (PTI, Edison, NJ) (excitation wavelength = 480 nm; emission wavelength = 530 nm; and excitation and emission slit widths = 5 nm).
(§3) For determination of association kinetics, 720 μl 2 nM [F^517]σ^70-RNAP holoenzyme and 0-2 μM GE in 40 mM Tris–HCl, pH 8.0, 100 mM NaCl, 10 mM MgCl2, 1 mM DTT, 0.02% Tween-20, and 5% glycerol was incubated 15 min at 24°C and then mixed with 30 μl 0.01–0.5 μM Rif in the same buffer at 24°C in a cuvette chamber with a mixing dead time ∼0.5 s, and fluorescence emission intensities were monitored for 30 min at 24°C. […]
(§4) The equilibrium dissociation constant for RNAP-GE interaction, Ki, was calculated from the association-kinetics data, by fitting the GE-concentration-dependence of I∞ to: I∞=(I∞,max[GE])/(Ki+[GE])

[8] = target: T2, [Lys684]β-RNAP (Escherichia coli, UniProt P0A8T7+P0A8V2, N684K); experiment: as above; format: binding
Method: as §2, §3, §4

[9] = target: T3, Thermus thermophilus RNAP (Thermus thermophilus, UniProt Q8RQE8+Q8RQE9); experiment: biochemical
T3 construct: made in house
T3 sequence (Q8RQE8 whole entry): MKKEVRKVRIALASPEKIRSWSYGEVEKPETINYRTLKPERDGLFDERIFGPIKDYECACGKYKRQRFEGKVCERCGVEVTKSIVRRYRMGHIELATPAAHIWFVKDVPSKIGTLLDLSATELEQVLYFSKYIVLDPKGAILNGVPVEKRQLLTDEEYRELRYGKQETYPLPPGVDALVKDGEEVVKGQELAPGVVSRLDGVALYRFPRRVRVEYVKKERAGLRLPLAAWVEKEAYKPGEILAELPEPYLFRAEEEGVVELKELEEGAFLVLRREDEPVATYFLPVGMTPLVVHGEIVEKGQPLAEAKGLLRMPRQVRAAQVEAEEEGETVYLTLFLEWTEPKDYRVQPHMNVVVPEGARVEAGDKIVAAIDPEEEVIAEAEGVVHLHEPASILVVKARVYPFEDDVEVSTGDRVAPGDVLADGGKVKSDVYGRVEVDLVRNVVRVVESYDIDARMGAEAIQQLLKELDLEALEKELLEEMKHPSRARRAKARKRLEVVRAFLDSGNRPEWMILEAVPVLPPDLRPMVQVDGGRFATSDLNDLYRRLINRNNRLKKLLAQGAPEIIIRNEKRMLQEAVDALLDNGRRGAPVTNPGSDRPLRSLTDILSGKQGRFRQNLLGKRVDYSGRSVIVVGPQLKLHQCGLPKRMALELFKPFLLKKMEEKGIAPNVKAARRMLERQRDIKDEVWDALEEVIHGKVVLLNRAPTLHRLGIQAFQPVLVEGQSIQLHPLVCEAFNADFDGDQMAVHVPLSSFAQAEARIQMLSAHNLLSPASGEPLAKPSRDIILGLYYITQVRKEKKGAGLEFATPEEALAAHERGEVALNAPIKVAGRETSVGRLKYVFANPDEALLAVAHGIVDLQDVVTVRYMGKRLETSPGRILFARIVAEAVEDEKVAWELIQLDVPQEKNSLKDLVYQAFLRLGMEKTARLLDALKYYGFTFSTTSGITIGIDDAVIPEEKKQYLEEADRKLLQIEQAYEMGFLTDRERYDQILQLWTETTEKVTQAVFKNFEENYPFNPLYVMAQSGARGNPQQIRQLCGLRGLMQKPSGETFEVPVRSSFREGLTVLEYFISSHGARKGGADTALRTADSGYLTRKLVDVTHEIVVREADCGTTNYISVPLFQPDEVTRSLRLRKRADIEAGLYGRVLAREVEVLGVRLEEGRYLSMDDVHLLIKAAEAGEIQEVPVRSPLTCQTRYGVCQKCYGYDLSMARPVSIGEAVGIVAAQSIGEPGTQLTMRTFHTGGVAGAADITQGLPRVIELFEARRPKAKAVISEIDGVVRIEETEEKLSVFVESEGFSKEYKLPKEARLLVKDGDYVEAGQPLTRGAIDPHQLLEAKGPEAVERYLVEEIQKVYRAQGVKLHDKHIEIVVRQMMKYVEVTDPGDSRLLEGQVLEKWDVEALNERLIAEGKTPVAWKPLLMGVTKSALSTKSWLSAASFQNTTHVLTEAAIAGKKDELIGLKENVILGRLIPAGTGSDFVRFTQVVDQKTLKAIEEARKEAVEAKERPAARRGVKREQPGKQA
T3 sequence (Q8RQE9 whole entry): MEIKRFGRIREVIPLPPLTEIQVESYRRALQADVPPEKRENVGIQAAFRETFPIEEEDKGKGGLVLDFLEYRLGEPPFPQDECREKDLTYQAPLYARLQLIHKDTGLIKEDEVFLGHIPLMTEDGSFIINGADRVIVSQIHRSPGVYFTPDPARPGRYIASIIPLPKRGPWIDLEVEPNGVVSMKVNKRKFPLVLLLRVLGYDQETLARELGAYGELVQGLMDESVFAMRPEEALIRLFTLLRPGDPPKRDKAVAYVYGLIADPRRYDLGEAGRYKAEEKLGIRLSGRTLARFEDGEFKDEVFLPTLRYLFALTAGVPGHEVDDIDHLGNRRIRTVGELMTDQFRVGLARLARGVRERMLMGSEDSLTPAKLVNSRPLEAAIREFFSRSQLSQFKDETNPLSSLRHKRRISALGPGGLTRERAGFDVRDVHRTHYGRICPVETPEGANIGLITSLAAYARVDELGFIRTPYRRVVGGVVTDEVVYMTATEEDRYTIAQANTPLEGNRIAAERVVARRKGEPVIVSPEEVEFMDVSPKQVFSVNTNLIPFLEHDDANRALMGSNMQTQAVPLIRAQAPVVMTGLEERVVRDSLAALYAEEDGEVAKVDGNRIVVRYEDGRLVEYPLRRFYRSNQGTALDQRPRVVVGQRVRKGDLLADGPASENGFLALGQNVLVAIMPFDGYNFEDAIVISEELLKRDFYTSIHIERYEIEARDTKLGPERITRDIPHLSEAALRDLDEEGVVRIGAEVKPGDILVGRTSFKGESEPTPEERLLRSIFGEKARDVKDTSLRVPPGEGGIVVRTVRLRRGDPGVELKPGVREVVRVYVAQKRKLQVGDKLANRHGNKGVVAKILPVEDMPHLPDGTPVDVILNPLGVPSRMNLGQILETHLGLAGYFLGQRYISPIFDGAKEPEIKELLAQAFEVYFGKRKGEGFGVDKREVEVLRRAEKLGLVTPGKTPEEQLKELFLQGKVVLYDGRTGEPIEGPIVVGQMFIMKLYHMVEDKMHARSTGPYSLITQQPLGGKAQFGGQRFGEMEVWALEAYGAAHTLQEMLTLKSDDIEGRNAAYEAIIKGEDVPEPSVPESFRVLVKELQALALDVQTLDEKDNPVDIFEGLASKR

[10] = target: T4, E. coli RNAP holoenzyme ([F^517]σ^70-RNAP holoenzyme) (Escherichia coli, UniProt P0A8T7+P0A8V2); experiment: Fluorescence-detected RNAP-Rif interaction assay; format: binding
T4 construct: made in house
Method: as §2
For determination of association kinetics, 720 μl 2 nM [F^517]σ^70-RNAP holoenzyme and 0-2 μM GE in 40 mM Tris–HCl, pH 8.0, 100 mM NaCl, 10 mM MgCl2, 1 mM DTT, 0.02% Tween-20, and 5% glycerol was incubated 15 min at 24°C and then mixed with 30 μl 0.01–0.5 μM Rif in the same buffer at 24°C in a cuvette chamber with a mixing dead time ∼0.5 s, and fluorescence emission intensities were monitored for 30 min at 24°C. On-rates for RNAP-Rif interaction, kon, were calculated by fitting data to: I=(I0−I∞)exp(−kobst)+I∞ where kobs is the observed association rate constant at a specified Rif concentration, I is the fluorescence emission intensity at time t, Io is the fluorescence emission intensity at t = 0, and I∞ is the fluorescence emission intensity at t = ∞; followed by fitting the Rif-concentration-dependence of kobs to: kobs=kon[Rif]+koff where koff is ≥0 but is otherwise unconstrained.
Off-rates for RNAP-Rif interaction, koff, were calculated as: I=I0+(I∞−I0)[1−exp(−kofft)] where I is the fluorescence emission intensity at time t, Io is the fluorescence intensity at t = 0, and I∞ is the fluorescence intensity at t = ∞.
Equilibrium dissociation constants for RNAP-Rif interaction, Kd, were calculated as koff/kon.
as §4

[11] = system: E. coli D21f2tolC; experiment: Resistance and cross-resistance levels, rpoB mutants from saturation mutagenesis (plasmid-borne), broth microdilution; format: cell-based, Escherichia coli
[12] = target: T5, E. coli RNAP holoenzyme (Escherichia coli, UniProt P0A8T7+P0A8V2); format: biochemical; conditions: 0.5 μM GE or 2.2 μM Rif; lacUV5(ICAP) promoter
[13] = target: T6, E. coli RNAP core enzyme (Escherichia coli, UniProt P0A8T7+P0A8V2); format: biochemical; conditions: 0.5 μM GE
T6 construct: purchased Epicentre, Madison, WI

[14] = target: T2, [Lys684]β-RNAP; experiment: biochemical; conditions: GE-resistant RNAP [Lys684]β-RNAP
[15] = target: T5, E. coli RNAP holoenzyme; format: biochemical; conditions: 0.5 μM GE or 2.2 μM Rif; ApA primer and UTP
[16] = system: S. pyogenes; experiment: Resistance levels, chromosomal GE^R mutants, broth microdilution; format: cell-based, Streptococcus pyogenes
[17] = target: T5, E. coli RNAP holoenzyme; format: biochemical; conditions: 0.5 μM GE; T7 A1 promoter
[18] = target: T5, E. coli RNAP holoenzyme; format: biochemical; conditions: halted TEC containing 29 nt RNA product
[19] = target: T7, Mycobacterium tuberculosis RNAP (Mycobacterium tuberculosis, UniProt P9WGY7+P9WGY9); experiment: biochemical
T7 construct: made in house

CC=C(C)C(=O)NCC1NC(=O)C(C(=O)O)NC(=O)C(O)CNC(=O)C(C(C)O)NC(=O)C(C(O)C(O)C(N)=O)NC(=O)C(C(C)C)NC(=O)C(CO)NC1=O (stereo not shown) [GE, GE23077]
IC50 [1]: 20 nM
IC50 [2]: > 50000 nM
IC50 [3]: 20 nM
MIC [4]: 250 µg/mL (≈ 311 µM)
MIC [5]: 25 µg/mL (≈ 31.1 µM)
MIC [6]: 250 µg/mL (≈ 311 µM)
Ki [7]: > 2000 nM
Ki [8]: > 2000 nM
IC50 [9]: 20000 nM
fold decrease of kon for Rif by GE ([10]; saturating GE): ~20 fold
fold increase of Kd for Rif by GE ([10]; saturating GE): ~80 fold
fold increase of koff for Rif by GE ([10]; saturating GE): fourfold
Ki ([10]; wild-type RNAP, 24°C, read-out: Ki,GE, equilibrium dissociation constant for inhibition of RNAP-Rif interaction by GE): 6 nM
cross-resistance of Rif^R mutants to GE ([11]; Rif^R mutants): do not exhibit cross-resistance
resistance, fold higher MIC, all six GE^R substitutions ([11]; all six GE^R substitutions): ≥ fourfold
inhibition of formation of RNAP-promoter open complex (RPo) [12]: does not inhibit
inhibition of single nucleotide addition, reconstituted elongation complex [13]: does not inhibit single nucleotide addition
IC50 [14]: > 400000 nM
MICwild-type: 500 µg/mL
inhibition of first nucleotide addition, primer-dependent transcription initiation [15]: inhibits the first nucleotide-addition step
resistance level (MIC/MICwild-type) ([16]; S. pyogenes rpoB 565 [525] Glu→Gly): 32
resistance level (MIC/MICwild-type) ([16]; S. pyogenes rpoB 565 [525] Glu→Val): 32
resistance level (MIC/MICwild-type) ([16]; S. pyogenes rpoB 681 [643] Met→Lys): 16
resistance level (MIC/MICwild-type) ([16]; S. pyogenes rpoB 684 [646] Asn→Ile): >32
MICwild-type ([16]; wild-type S. pyogenes): 250 µg/mL
inhibition of first nucleotide addition, de novo transcription initiation [17]: inhibits the first nucleotide-addition step
inhibition of nucleotide addition in transcription elongation, halted elongation complex [18]: does not inhibit transcription elongation
IC50 [19]: 100 nM
